What was measured:
P2X1 = conditions: reviewer comment, no reference given; cited from earlier work
[1] = molecular target: the molecule itself; experiment: cryo-EM structure; single particle cryo-EM of purified hP2X1 in C12M (DDM)/CHS, 20 mM HEPES pH 7.0, 100 mM NaCl, 5 mg/mL; three states: apo closed, ATP-bound desensitized (endogenous ATP), NF449-bound inhibited (400 uM NF449)

| Molecule | potency for P2X1 relative to P2X3 (P2X1) [times] | stoichiometry N [1] |
| --- | --- | --- |
| Nc1ncnc2c1ncn2[C@@H]1O[C@H](COP(=O)(O)CP(=O)(O)OP(=O)(O)O)[C@@H](O)[C@H]1O [α, β-MeATP] | 10 |  |
| full-length wild-type human P2X1 receptor (receptor, UniProt P51575 1-399, looked up, N-linked glycosylation (N-acetylglucosamine modelled in the extracellular domain, e.g. at N184), human P2X1 receptor (P2X purinoceptor 1), full-length wild type, no mutations or truncations; Cytoplasmic N- and C-terminal residues are not visible in the maps; also called hP2X1; hP2X1-WT; source: HEK293 GNTI- cells, BacMam baculovirus transduction; solubilised in DDM/CHS, purified (TALON resin, HRV 3C protease digestion, SEC on Superdex 200 increase)) MARRFQEELAAFLFEYDTPRMVLVRNKKVGVIFRLIQLVVLVYVIGWVFLYEKGYQTSSGLISSVSVKLKGLAVTQLPGLGPQVWDVADYVFPAQGDNSFVVMTNFIVTPKQTQGYCAEHPEGGICKEDSGCTPGKAKRKAQGIRTGKCVAFNDTVKTCEIFGWCPVEVDDDIPRPALLREAENFTLFIKNSISFPRFKVNRRNLVEEVNAAHMKTCLFHKTLHPLCPVFQLGYVVQESGQNFSTLAEKGGVVGITIDWHCDLDWHVRHCRPIYEFHGLYEEKNLSPGFNFRFARHFVENGTNYRHLFKVFGIRFDILVDGKAGKFDIIPTMTTIGSGIGIFGVATVLCDLLLLHILPKRHYYKQKKFKYAEDMGPGAAERDLAATSSTLGLQENMRTS |  | 3 |

Source: publication PMC11448502, “Cryo-EM structures of the human P2X1 receptor reveal subtype-specific architecture and antagonism by supramolecular ligand-binding” (Nature Communications, 2024)
